Each structure is given as a SMILES string. Where only a bound is given, the exact number is not on record here.

One assay has as its system Aβ production. The experiment in a line: Cellular Aβ IC50 determination (Aβ40 sandwich ELISA). Format: cell-based. To be noted: Cricetulus griseus, Chinese hamster ovary cells over-expressing human APP695 with London and Swedish mutations, 24 h. On the procedure: The potency of compounds against memapsin 2 activity was determined in a cellular assay of Aβ production. […] Chinese hamster ovary cells that over-express human APP695 with the London and Swedish mutations were seeded in multi-well plates at 10% confluency. Compounds were dissolved in DMSO to concentrations near 1 mM, and diluted into culture media to a final concentration near 4 μM (final 0.4% DMSO). Compounds were diluted serially and applied to cells in multi-well plates 48 h after seeding. Incubation was continued in 5% CO2 at 37 degrees C. for 24 h. Aliquots were removed and assayed for Aβ40 content using a sandwich ELISA (BioSource International). Amount of Aβ40 over the range of concentration of compounds, relative to control incubations, were fit to a 4-parameter IC50 model.

A further assay deals with memapsin 2 (Homo sapiens, UniProt P56817). The experiment in a line: Inhibition of memapsin 2 beta-secretase activity toward fluorogenic substrate FS-2. Format: biochemical. To be noted: pH 4, 37° C., 20 minutes pre-incubation, read-out: M2 Ki. Here is the method: Potency of compounds were determined by measurement of their inhibition of memapsin 2 activity toward a fluorescent substrate. […] Briefly, assays were performed at pH 4, 37° C., by pre-incubation of memapsin 2 enzyme with compound for 20 minutes. Activity measure was initiated by addition of a fluorogenic substrate FS-2 (Bachem Americas, Torrance, Calif.). Fluorescent signal increase over time was measured as a rate of hydrolysis of the peptide substrate.
Sequence of memapsin 2 (P56817 46-501): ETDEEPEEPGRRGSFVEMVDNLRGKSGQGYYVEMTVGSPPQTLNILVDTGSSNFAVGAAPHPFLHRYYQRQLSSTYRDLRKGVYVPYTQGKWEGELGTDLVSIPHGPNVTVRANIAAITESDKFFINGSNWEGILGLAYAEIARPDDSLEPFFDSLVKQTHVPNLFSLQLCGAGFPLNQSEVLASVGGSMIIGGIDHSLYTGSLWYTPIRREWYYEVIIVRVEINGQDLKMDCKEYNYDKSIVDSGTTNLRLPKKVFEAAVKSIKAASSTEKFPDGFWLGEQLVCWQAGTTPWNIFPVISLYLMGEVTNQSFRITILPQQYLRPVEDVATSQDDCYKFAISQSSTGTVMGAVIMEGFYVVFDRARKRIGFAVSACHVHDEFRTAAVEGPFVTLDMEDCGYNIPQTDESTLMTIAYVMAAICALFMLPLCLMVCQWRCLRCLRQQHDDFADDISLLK

Take `CC(C)CC(NC(=O)c1cc(C(=O)NCc2ccccc2)cc(N(C)S(C)(=O)=O)c1)C(O)CC(C)C(=O)NC(C(=O)NC(C)C)C(C)C` (stereo not drawn) [N1-benzyl-N3-(5-hydroxy-8-(1-(isopropylamino)-3-methyl-1-oxobutan-2-ylamino)-2,7-dimethyl-8-oxooctan-4-yl)-5-(N-methylmethylsulfonamido)isophthalamide]: the IC50 in the assay with Aβ production was in the range of 5 to 10 µM.
For the compound `CC(C)CC(NC(=O)c1cc(C(=O)NC(C)c2ccccc2)cc(N(C)S(C)(=O)=O)c1)C(O)CC(C)C(=O)NC(C(=O)NCC1CCN(C)CC1)C(C)C` (stereo not drawn) [N1-(5-hydroxy-2,7-dimethyl-8-(3-methyl-1-((1-methylpiperidin-4-yl)methylamino)-1-oxobutan-2-ylamino)-8-oxooctan-4-yl)-5-(N-methylmethylsulfonamido)-N3-(1-phenylethyl)isophthalamide], the inhibition constant (Ki) at memapsin 2 was less than 0.405 µM. The IC50 with Aβ production was less than 5 µM.
For `CC(C)CC(NC(=O)c1cc(C(=O)NC(CO)c2ccccc2)cc(N(C)S(C)(=O)=O)c1)C(O)CC(C)C(=O)NC(C(=O)NC(C)C)C(C)C` (stereo not drawn) [N1-(2-hydroxy-1-phenylethyl)-N3-(5-hydroxy-8-(1-(isopropylamino)-3-methyl-1-oxobutan-2-ylamino)-2,7-dimethyl-8-oxooctan-4-yl)-5-(N-methylmethylsulfonamido)isophthalamide] the same measures were 0.405 to 2 µM and greater than 20 µM.
On to `CC(C)CC(NC(=O)c1cc(C(=O)NC(C)c2ccccc2)cc(N(C)S(C)(=O)=O)c1)C(O)CC(C)C(=O)NC(C(=O)NC(C)C)C(C)C` (stereo not drawn) [N1-(5-hydroxy-8-(1-(isopropylamino)-3-methyl-1-oxobutan-2-ylamino)-2,7-dimethyl-8-oxooctan-4-yl)-5-(N-methylmethylsulfonamido)-N3-(1-phenylethyl)isophthalamide], for which, in the assay on Aβ production, the IC50 is less than 5 µM.
Consider `Cc1nc(CN(C)C(=O)c2cccc(C(=O)NC(CC(C)C)C(O)CC(C)C(=O)NC(C(=O)NCC(C)C)C(C)C)c2)co1` (stereo not drawn) [N1-(5-hydroxy-8-(1-(isobutylamino)-3-methyl-1-oxobutan-2-ylamino)-2,7-dimethyl-8-oxooctan-4-yl)-N3-methyl-N3-((2-methyloxazol-4-yl)methyl)isophthalamide], for which, on memapsin 2, the Ki is less than 0.405 µM. In the assay with Aβ production, the IC50 was greater than 20 µM.
For `Cc1cc(C(=O)NC(CC(C)C)C(O)CC(C)C(=O)NC(C(=O)NCC(C)C)C(C)C)cc(C(=O)N(C)Cc2ccccn2)c1` (stereo not drawn) [N1-(5-hydroxy-8-(1-(isobutylamino)-3-methyl-1-oxobutan-2-ylamino)-2,7-dimethyl-8-oxooctan-4-yl)-N3,5-dimethyl-N3-(pyridin-2-ylmethyl)isophthalamide], the Ki at memapsin 2 was less than 0.405 µM. The compound also had an IC50 in the assay on Aβ production greater than 20 µM.
Taken in the same sequence, the figures for `COc1cccc(CN(C)C(=O)c2cccc(C(=O)NC(CC(C)C)C(O)CC(C)C(=O)NC(C(=O)NCC(C)C)C(C)C)c2)c1` (stereo not drawn) [N1-(5-hydroxy-8-(1-(isobutylamino)-3-methyl-1-oxobutan-2-ylamino)-2,7-dimethyl-8-oxooctan-4-yl)-N3-(3-methoxybenzyl)-N3-methylisophthalamide] were 0.405 to 2 µM and greater than 20 µM.
For `Cc1cc(C(=O)NC(CC(C)C)C(O)CC(C)C(=O)NC(C(=O)NCC(C)C)C(C)C)cc(C(=O)N(C)Cc2cccnc2)c1` (stereo not drawn) [N1-(5-hydroxy-8-(1-(isobutylamino)-3-methyl-1-oxobutan-2-ylamino)-2,7-dimethyl-8-oxooctan-4-yl)-N3,5-dimethyl-N3-(pyridin-3-ylmethyl)isophthalamide], the Ki at memapsin 2 is less than 0.405 µM. In the assay with Aβ production, the IC50 is 10 to 20 µM.
For the compound `COc1cccc(CNC(=O)CNC(=O)C(C)CC(O)C(CC(C)C)NC(=O)c2cc(C(=O)NC(C)c3ccccc3)cc(N(C)S(C)(=O)=O)c2)c1` (stereo not drawn) [N1-(5-hydroxy-8-(2-(3-methoxybenzylamino)-2-oxoethylamino)-2,7-dimethyl-8-oxooctan-4-yl)-5-(N-methylmethylsulfonamido)-N3-(1-phenylethyl)isophthalamide], the Ki at memapsin 2 was in the range of 0.405 to 2 µM.

The values above are taken from patent US20080207527A1, “Bicyclic Compounds Which Inhibit Beta-Secretase Activity and Methods of Use Thereof” (CoMentis, Inc., priority 2004, published 2008).
